In PMC12030314, “Biomarker-Driven Pharmacokinetics and Efficacy of Polymyxin B in Critically Ill Patients with XDR-GN Pneumonia” (Pharmaceuticals, 2025):
Where two headings read alike, the source gives them in different places. Where a SMILES comes first, the peptide text is derived from it. Bridges are numbered along the chain shown (N, C = ends). [ ]: non-standard residue; d: D form. The star is where a group is joined. X1 = CC[C@H](C)CCCCC(=O)*; Dab = NCC[C@H](N)C(=O)O

Legend:
[1] = cited from earlier work
Description: Colistin (colistin methanesulfonate, CMS) and polymyxin B (PMB) are polymyxins that were approved for clinical use in the 1950s worldwide. Colistin is clinically administered as a prodrug, which requires conversion to the active form in vivo. […] The elimination of colistin is primarily dependent on renal function. Patients with renal impairment are prone to drug accumulation and increased nephrotoxicity risk. PMB is ... || Finally, we cannot rule out the possibility of the potential impacts of other combined drugs on PMB PK and the heterogeneity among the patients in our study. To date, little evidence supports the conclusion that the combined use of other drugs affects PMB PK. Studies have shown that urinary recovery from PMB is low (<5%). […] Further studies examining the nonrenal routes of PMB elimination are warranted, ...

[2] = Nephrotoxicity during PMB therapy; format: in vivo, human
Protocol: Patient characteristics and laboratory data, including age, sex, weight, medical history, Acute Physiology And Chronic Health Evaluation (APACHE) II score, Sequential Organ Failure Assessment (SOFA) score, estimated creatinine clearance, arterial blood gas analysis, life support interventions, infection site, and type of pathogen, were recorded before PMB administration. The anti-infection therapeutic regimen, course, and incidence of PMB-related adverse reactions were recorded during the study. The creatinine clearance rate (CCr) was calculated with the formula: Ccr = (140 − age) × weight (kg)/[72 × serum creatinine (mg/dL)] for male and Ccr = (140 − age) × weight(kg)/[85 × serum creatinine (mg/dL)] for female. Nephrotoxicity was defined as an increase in serum creatinine of ≥0.3 mg/dL within 48 h or an increase in serum creatinine to ≥1.5 times higher than baseline.

[3] = PK/PD targets attainment; format: in vivo, human
Protocol: The primary PD response was evaluated by PK/PD indices. An AUCss,0–24h of 50–100 mg·hour/L or a Css,avg of 2–4 mg/L was used as the PK/PD targets for PMB. The secondary PD response was evaluated by clinical parameters. An achievement of the treatment success at the end of treatment was defined by either (1) physicians’ judgment of improvement in signs and symptoms (reasonable compromise on the basis of survival, stable, or improved haemodynamics and oxygenation index and improved chemical and physiological indices of infection) or (2) microbiological elimination. […] The percentage of patients who achieved the PK/PD targets or treatment success was calculated. Variables potentially related to clinical efficacy were assessed. Receiver operating characteristic (ROC) curves were drawn to investigate and compare different indices as predictors of clinical efficacy. The optimal cutoff point for the PK/PD indices was calculated with the Youden index.

[4] = PMB concentration in epithelial lining fluid (BAL, urea dilution method); format: in vivo; conditions: human, iv, 50 mg; for Kp at 96 h: epithelial lining fluid / plasma, read-out: ELF/plasma ratio; for level at 96 h: epithelial lining fluid; for Cmax: plasma, patients with BAL samples
Protocol: BAL sample collection was possible for 15 of the patients. If the patients’ respiratory status permitted, one BAL was performed immediately after the seventh dose (on day 4 of treatment). Four 20 mL aliquots of sterile 0.9% normal saline solution were instilled, immediately aspirated, and placed on ice. The aspirate from the first 20 mL instillation was collected and discarded. The aspirates recovered from the second, third, and fourth instillations were pooled.
Blood and BAL samples were centrifuged for 10 min (3000 rpm) and immediately stored at −80 °C until analysis.
PMB concentrations in the samples were quantified by monitoring the total concentrations of polymyxin B1 (PB1), polymyxin B2 (PB2), polymyxin B3 (PB3), and isoleucine polymyxin B1 (I-PB1) via a validated ultraperformance liquid chromatography–tandem mass spectrometry (UPLC-MS/MS) assay. The standard substances, including PB1 (CAS P037), PB2 (CAS P037), PB3 (CAS P040), and I-PB1 (CAS P038), were purchased by TOKU-E Company (>99% pure, Bellingham, WA, USA). ACQUITY UPLC system, Quattro PremierXE triple quadrupole mass spectrometer, electrospray isonizaiton source (ESI), and Masslynx 4.1 data processing software were used in this study (Waters Company, Milford, MA, USA). An Acquity UPLC BEH C18 column (50 mm × 2.1 mm internal diameter, 1.8 μm) purchased from Waters (Milford, MA, USA) was used. The mobile phase comprised a 0.2% formic acid aqueous solution and a 0.2% formic acid acetonitrile solution, and the flow rate was 0.3 mL/min. Mass spectrometric detection was performed in positive electrospray ionization (ESI+) mode with multiple reaction monitoring (MRM). The optimized transitions were set as follows: m/z 602.7→101.0 for PB1 and I-PB1, m/z 595.7→100.9 for PB2 and PB3, and […] for the internal standard norvancomycin. Plasma and BAL supernatant was aliquoted into microcentrifuge tubes and sequentially treated with 20 μL norvancomycin or 200 μL 5% trichloroacetic acid. 1 μL plasma and 2 μL BAL of supernatant were collected separately for the detection of PMB concentrations.
The ELF recovery rate was calculated via the urea dilution method, as reported in previous studies. The concentration of urea was analysed with a commercial kit purchased from Beijing Solarbio Science & Technology Co., Ltd., Beijing, China (BC1535). The concentration of PMB in the ELF (ELF[PMB]) was measured by using urea as an endogenous marker of ELF dilution via the following equation: ELF[PMB] = BAL[PMB] × (blood urea/BAL[Urea]), where BAL[PMB] is the concentration of PMB in BAL and BAL[Urea] is the concentration of urea in BAL.

## CC[C@H](C)CCCCC(=O)N[C@@H](CCN)C(=O)N[C@H](C(=O)N[C@@H](CCN)C(=O)N[C@H]1CCNC(=O)[C@H]([C@@H](C)O)NC(=O)[C@H](CCN)NC(=O)[C@H](CCN)NC(=O)[C@H](CC(C)C)NC(=O)[C@@H](Cc2ccccc2)NC(=O)[C@H](CCN)NC1=O)[C@@H](C)O [PMB, polymyxin B] (X1-[Dab]T[Dab][Dab][Dab][dF]L[Dab][Dab]T; lactam 4-C)
[1]
  urinary recovery: < 5%
[1]; in vivo
  hepatobiliary metabolism (non-renal clearance): ~60%
[2]; Total (n = 27), serum creatinine increase ≥0.3 mg/dL within 48 h or ≥1.5 times baseline
  Nephrotoxicity: 4 (14.81) n (%)
[2]; when PMB medication was administered, 27 patients
  number of patients who suffered from nephrotoxicity: four
[3]; 9 patients
  treatment success among patients who reached the target Css,avg of 2–4 mg/L: 77.78%
[3]; 13 patients
  treatment success among patients who reached the target AUCss,0–24h of 50–100: 76.95%
[3]; in vivo
  treatment success among patients who exceeded the target AUCss,0–24h: 92.31%
[4]; treatment failure group, median [IQR]
  Kp at 96 h: 0.088
[4]; treatment success group, median [IQR]
  Kp at 96 h: 0.17
[4]; BAL immediately after the seventh dose (day 4), urea dilution method, median and IQR, read-out: ELF concentration
  level at 96 h: 900 ng/mL
[4]; treatment failure group, median [IQR], read-out: PMB concentration in the ELF
  level at 96 h: 980 ng/mL
[4]; treatment success group, median [IQR], read-out: PMB concentration in the ELF
  level at 96 h: 840 ng/mL
[4]; median and IQR, read-out: plasma Cmax
  Cmax: 7460 ng/mL
[4]; treatment failure group, median [IQR], read-out: Cmax
  Cmax: 11100 ng/mL
[4]; treatment success group, median [IQR], read-out: Cmax
  Cmax: 5940 ng/mL
